Assay results taken from patent US11666577B2 (National Institute of Biological Sciences, Beijing, priority 2018, dated 2023).
Like-named read-outs stand apart in the source and are kept apart here.

Experiments:
RIP3 = RIP3 (Homo sapiens, UniProt Q9Y572); assay: RIP3 kinase activity enzymatic assay; assay type: biochemical
Description: (§1) To determine whether the direct target of this series of compounds is MLKL, we performed activity based protein profiling (ABPP). Compound 12, an affinity probe, was incubated with MLKL-flag-HT-29 cell lysates for 2 hours, followed by a click reaction to conjugate the probe to a biotin-tag. The biotin-labeled compound-protein complexes were pulled down and analysed via SDS-PAGE.

pMLKL = assay: Immunofluorescence staining of pMLKL in HT-29 cells; assay type: cell-based, human; details: monoclonal anti-pMLKL antibody, Experimental-section numbering
Text: This is a crucial step in the translocation of MLKL from the cytoplasm to the cell membrane, where it mediates ion influx and/or causes the disruption of cell structures.^[5] To evaluate the mechanism of this series of compounds on MLKL, we detected the status (state of oligomerization and phosphorylation) of MLKL under TSZ stimulation in the presence of compound 12 or 15. […] Next, we evaluated the effects of MLKL inhibitors on the translocation of MLKL from the cytoplasm to the cell membrane. HT-29 cells were treated with TSZ in the presence of RIPA-56, NSA, compound 12, or compound 15 for 6 h. The proteins from cell lysates were separated and the soluble phase and membrane phase were analyzed separately with anti-MLKL and anti-pMLKL antibodies. […] We also performed immunofluorescence staining in HT-29 cells using a monoclonal anti-pMLKL antibody. After TSZ stimulation, large, bright-green fluorescent dots (pMLKL) were present in the plasma membrane. […] Sun, X. Wang, Trends Biochem. Sci 2014, 39, 587-593; bM. Pasparakis, P. Vandenabeele, Nature 2015, 517, 311-320. • 2. N. Holler, R. Zaru, O. Micheau, M. Thome, A. Attinger, S. Valitutti, J.-L. Bodmer, P. Schneider, B. Seed, J. Tschopp, Nat. Immunol. 2000, 1, 489-495. • 3. aS. He, L. Wang, L. Miao, T. Wang, F. Du, L. Zhao, X. Wang, Cell 2009, 137, 1100-1111; bD.-W. Zhang, J. Shao, J. Lin, N. Zhang, B.-J. Lu, S.-C. Lin, M.-Q. Dong, J. Han, Science 2009, 325, 332-336. • 4. L. Sun, H. et al. Cell 2012, 148, 213-227. • 5. aH. Wang, L. Sun, L. Su, J. Rizo, L. Liu, L.-F. Wang, F.-S. Wang, X. Wang, Mol. Cell 2014, 54, 133-146; bZ. Cai, S. Jitkaew, J. Zhao, H.-C. Chiang, S. Choksi, J. Liu, Y. Ward, L.-g. Wu, Z.-G. Liu, Nat. Cell Biol. 2014, 16, 55-65. • 6. aJ. Wu, et al., Cell Res. 2013, 23, 994-1006; bD. Ofengeim, Y. Ito, A. Najafov, Y. Zhang, B. Shan, J. P. DeWitt, J. Ye, X. Zhang, A. Chang, H. Vakifahmetoglu-Norberg, Cell reports 2015, 10, 1836-1849; cM. Pierdomenico, A. Negroni, L. Stronati, R. Vitali, E. Prete, J. Bertin, P. J. Gough, M. Aloi, S. Cucchiara, Am J. Gastroenterol. 2014, 109, 279-287. • 7. […]

VEGFR2 = VEGFR2 (Homo sapiens, UniProt P35968); details: cited from earlier work
HT-29 cells = assay: Necroptosis assay (TNF-α/Smac mimetic/z-VAD, TSZ-induced) in HT-29 cells; assay type: cell-based, human; details: read-out: EC50 (nM), potency in TSZ-induced necroptosis assays in HT-29 cells
Outline: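 HT-29 cells were challenged with 20 ng/ml TNF-α, 100 nM Smac mimetic and 20 mM z-VAD while compound was added at the same time (library screen at 10 mM). After 24 h, viability was read as ATP luminescence (CellTiter-Glo) and normalized to DMSO-treated cells; values are means ± SD of duplicates.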

RIP1 = biological target: T1, RIP1 (Homo sapiens, UniProt Q13546); assay: RIP1 kinase activity enzymatic assay; assay type: biochemical
T1 sequence (Q13546 1-671): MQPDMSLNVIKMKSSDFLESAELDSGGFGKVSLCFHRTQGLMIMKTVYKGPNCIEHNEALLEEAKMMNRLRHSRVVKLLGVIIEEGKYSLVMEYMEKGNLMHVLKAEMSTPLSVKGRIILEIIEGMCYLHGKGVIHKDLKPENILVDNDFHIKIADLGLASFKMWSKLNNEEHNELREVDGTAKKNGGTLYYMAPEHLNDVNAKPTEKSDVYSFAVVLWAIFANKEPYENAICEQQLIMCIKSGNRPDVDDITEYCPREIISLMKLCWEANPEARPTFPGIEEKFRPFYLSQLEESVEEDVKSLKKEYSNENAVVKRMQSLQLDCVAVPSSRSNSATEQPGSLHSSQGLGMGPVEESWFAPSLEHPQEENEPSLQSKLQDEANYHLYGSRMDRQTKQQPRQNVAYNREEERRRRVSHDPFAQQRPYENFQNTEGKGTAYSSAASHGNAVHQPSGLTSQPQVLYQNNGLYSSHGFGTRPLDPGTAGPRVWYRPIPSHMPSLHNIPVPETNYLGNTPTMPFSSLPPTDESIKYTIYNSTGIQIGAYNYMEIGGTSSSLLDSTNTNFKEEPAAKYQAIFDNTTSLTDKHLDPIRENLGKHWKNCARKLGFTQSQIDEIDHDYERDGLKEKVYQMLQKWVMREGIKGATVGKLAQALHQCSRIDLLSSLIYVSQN
Description: as §1

VEGFR2, sequence (P35968 20-1356, species assumed): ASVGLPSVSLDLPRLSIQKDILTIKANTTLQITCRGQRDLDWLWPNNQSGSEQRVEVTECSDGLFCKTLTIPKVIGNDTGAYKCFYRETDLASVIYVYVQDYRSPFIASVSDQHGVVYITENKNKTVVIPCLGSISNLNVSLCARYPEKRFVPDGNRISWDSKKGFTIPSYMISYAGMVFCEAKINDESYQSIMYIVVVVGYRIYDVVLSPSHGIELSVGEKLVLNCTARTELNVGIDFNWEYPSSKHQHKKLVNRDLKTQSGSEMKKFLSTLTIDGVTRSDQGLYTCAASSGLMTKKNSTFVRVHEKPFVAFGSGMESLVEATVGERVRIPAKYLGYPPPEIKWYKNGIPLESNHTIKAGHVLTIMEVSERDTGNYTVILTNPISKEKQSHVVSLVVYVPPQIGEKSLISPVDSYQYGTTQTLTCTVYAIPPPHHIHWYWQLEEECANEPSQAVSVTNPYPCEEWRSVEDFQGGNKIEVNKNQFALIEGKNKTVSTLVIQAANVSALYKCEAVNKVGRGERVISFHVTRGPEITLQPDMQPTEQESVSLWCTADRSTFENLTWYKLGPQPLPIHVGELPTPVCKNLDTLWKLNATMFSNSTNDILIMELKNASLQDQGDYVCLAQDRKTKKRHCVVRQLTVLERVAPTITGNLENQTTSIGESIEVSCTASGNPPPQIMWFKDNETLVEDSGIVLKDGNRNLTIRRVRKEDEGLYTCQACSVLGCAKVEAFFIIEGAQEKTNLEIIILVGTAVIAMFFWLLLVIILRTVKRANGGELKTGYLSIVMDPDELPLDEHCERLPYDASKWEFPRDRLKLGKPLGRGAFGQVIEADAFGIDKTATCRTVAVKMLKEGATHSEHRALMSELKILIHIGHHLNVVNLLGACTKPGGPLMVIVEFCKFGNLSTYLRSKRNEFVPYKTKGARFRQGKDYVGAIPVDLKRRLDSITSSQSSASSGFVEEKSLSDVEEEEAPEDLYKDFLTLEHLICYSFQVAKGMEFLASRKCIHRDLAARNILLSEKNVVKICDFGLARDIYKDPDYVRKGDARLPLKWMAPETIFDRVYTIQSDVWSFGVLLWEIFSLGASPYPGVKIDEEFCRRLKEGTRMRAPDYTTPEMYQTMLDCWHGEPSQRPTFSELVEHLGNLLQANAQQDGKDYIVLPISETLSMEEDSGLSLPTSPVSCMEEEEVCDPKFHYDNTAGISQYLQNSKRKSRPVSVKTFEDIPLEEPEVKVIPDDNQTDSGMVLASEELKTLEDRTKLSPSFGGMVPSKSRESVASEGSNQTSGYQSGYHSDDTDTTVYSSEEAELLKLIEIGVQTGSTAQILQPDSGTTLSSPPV
RIP3, sequence (Q9Y572 whole entry): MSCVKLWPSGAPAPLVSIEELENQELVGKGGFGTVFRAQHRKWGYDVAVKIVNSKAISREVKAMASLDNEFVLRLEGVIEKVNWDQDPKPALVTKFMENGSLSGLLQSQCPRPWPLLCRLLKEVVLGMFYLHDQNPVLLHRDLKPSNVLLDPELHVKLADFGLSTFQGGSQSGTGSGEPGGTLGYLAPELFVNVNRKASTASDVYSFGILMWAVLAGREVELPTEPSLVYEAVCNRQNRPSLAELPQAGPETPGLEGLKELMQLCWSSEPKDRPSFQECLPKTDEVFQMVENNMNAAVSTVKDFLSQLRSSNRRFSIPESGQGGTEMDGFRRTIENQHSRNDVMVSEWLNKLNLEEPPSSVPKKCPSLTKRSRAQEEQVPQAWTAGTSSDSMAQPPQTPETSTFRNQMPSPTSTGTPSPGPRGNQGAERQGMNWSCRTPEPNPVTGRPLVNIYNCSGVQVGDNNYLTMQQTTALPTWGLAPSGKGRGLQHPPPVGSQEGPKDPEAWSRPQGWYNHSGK

Structure (SMILES)	off-target activity against RIP3 (RIP3)	pMLKL immunofluorescence after TSZ stimulation (pMLKL)	off-target activity against other kinases, including VEGFR2 (VEGFR2)	EC50 (HT-29 cells; Homo sapiens, HT-29, 24 h) [nM]	off-target activity against RIP1 (RIP1)	EC50 (HT-29 cells; Experimental-section numbering (compound 1 = Series 1 compound 4), necroptosis induced for 24 h, mean of at least three independent analyses) [nM]
CN(c1ccc(NC(=O)Nc2ccc(OC(F)(F)F)cc2)cc1)c1ccnc(Nc2cccc(S(N)(=O)=O)c2)n1 [GW806742X]	off-target activities	blocked the phosphorylation of MLKL completely	off-target activity	589 ± 12	off-target activities	–
COc1nccnc1NS(=O)(=O)c1ccc(NC(=O)/C=C/c2ccc([N+](=O)[O-])s2)cc1 [NSA, necrosulfonamide, reference compound]	–	small pMLKL dots were dispersed in the cytoplasm	–	–	–	447 ± 32
